Test system: Trypanosoma cruzi
Experiment: Trypanocidal effect on bloodstream trypomastigotes of Trypanosoma cruzi; ED50/24h
Type: functional

SMILES | ED50
CN(C)c1ccc(C(=C2C=CC(=[N+](C)C)C=C2)c2ccc(N(C)C)cc2)cc1 | 536 µM
CC1(C)CCc2c(c3ccccc3c3nc4cc(Nc5ccccc5)/c(=N/c5ccccc5)cc-4n(-c4ccccc4)c23)O1 | 61.3 µM

Source: ChEMBL document CHEMBL1135751, “A trypanocidal phenazine derived from beta-lapachone” (2002)
